Tests used:
[1] = Inhibition of RSK2 in mouse BAF cells assessed as YB1 phosphorylation at Ser102 by electrochemiluminescence assay
[2] = Inhibition of recombinant full length RSK2 (unknown origin) using biotin-AGAGRSRHSSYPAGT-OH as substrate after 150 mins

Row | SMILES | IC50 [1] [nM] | IC50 [2] [nM]
1 | COc1ccc(F)cc1-c1cccc2nc(Nc3cc(OC)c(OC)c(OC)c3)oc12 | 3700 | 40
2 | COc1cc(Nc2nc3cccc(-c4c(F)cccc4OC(C)C)c3o2)cc(OC)c1OC | > 20000 | 970
3 | COc1cc(Nc2nc3cccc(-c4ccccc4OC(F)(F)F)c3o2)cc(OC)c1OC | > 20000 | 4000
4 | COc1cccc(Nc2nc3cccc(-c4c(F)cccc4OC)c3o2)n1 | > 20000 | 620
5 | COc1cccc(F)c1-c1cccc2nc(N)oc12 | > 20000 | 2800
6 | CCOc1cccc(Nc2nc3cccc(-c4c(F)cccc4OC)c3o2)c1 | > 20000 | 730
7 | COc1cc(Nc2nc3cccc(-c4cccc5cn[nH]c45)c3o2)cc(OC)c1OC | 5700 | 50
8 | COc1cc(Nc2nc3cccc(-c4ccccc4F)c3o2)cc(OC)c1OC | 18000 | 220
9 | COc1cc(Nc2nc3cccc(-c4c(OC)cccc4OC)c3o2)cc(OC)c1OC | > 20000 | 1200
10 | COc1ccc(Nc2nc3cccc(-c4c(F)cccc4OC)c3o2)cc1OC | 6500 | 70
11 | COc1cc(C)ccc1-c1cccc2nc(Nc3cc(OC)c(OC)c(OC)c3)oc12 | 9700 | 40
12 | COc1ccc(Nc2nc3cccc(-c4c(F)cccc4OC)c3o2)cc1N | > 20000 | 220
13 | COc1cccc(F)c1-c1cccc2nc(NC3CCOCC3)oc12 | > 20000 | 3200
14 | COc1cc(Nc2nc3cccc(-c4nc(C)[nH]c4C)c3o2)cc(OC)c1OC | 19800 | 560
15 | COc1cccc(Nc2nc3cccc(-c4c(F)cccc4OC)c3o2)c1 | 15400 | 410
16 | COc1ccccc1-c1cccc2nc(Nc3cc(OC)c(OC)c(OC)c3)oc12 | 5700 | 20
17 | COc1cc(Nc2nc3cccc(-c4ccccc4-c4cn[nH]c4)c3o2)cc(OC)c1OC | > 20000 | 9300
18 | COc1cccc(F)c1-c1cccc2nc(NC3CCCCC3)oc12 | > 20000 | 620
19 | COc1cccc(F)c1-c1cccc2nc(Nc3ccccc3)oc12 | > 20000 | 1000
20 | COc1cc(Nc2nc3cccc(-c4c(F)cccc4OC)c3o2)cc(OC)c1 | 17200 | 210
21 | COc1cccc(F)c1-c1cccc2nc(Nc3cccc(S(N)(=O)=O)c3)oc12 | > 20000 | 340
22 | COc1cc(Nc2nc3cccc(-c4cccc5[nH]cnc45)c3o2)cc(OC)c1OC | 800 | 4
23 | COc1ccc(Nc2nc3cccc(-c4c(F)cccc4OC)c3o2)cc1 | > 20000 | 1400
24 | COc1ccc(Nc2nc3cccc(-c4c(F)cccc4OC)c3o2)cc1O[C@H]1CCNC1 | 6300 | 10
25 | CCOc1cccc(F)c1-c1cccc2nc(Nc3cc(OC)c(OC)c(OC)c3)oc12 | 10800 | 490
26 | COc1ccc(C)cc1-c1cccc2nc(Nc3cc(OC)c(OC)c(OC)c3)oc12 | 14500 | 1100

From BindingDB's records for doi:10.1016/j.bmcl.2014.01.058 (Novartis Institutes For Biomedical Research, 2014)
